These results are taken from patent publication US12338262B2 (Forward Therapeutics, Inc., priority 2022, dated 2025).

The term IC50 denotes the concentration at which inhibition is half-maximal. A lower IC50 goes with greater potency in that assay.

The target of the assay is TNF-α (Homo sapiens, UniProt P01375). The assay is described as follows: TNF-α Induced HEK Blue Cellular Assay. Particulars: HEK Blue TNFα reporter cells, TNF-α 100 pg/ml, 24 hrs at 37° C., secreted alkaline phosphatase (QUANTI-Blue, 620 nm). It is filed as cell-based. The essentials: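 HEK Blue TNFα reporter cells (10,000/well, DMEM + 10% FBS) treated with compound ([…] to 0.5 nM final) and stimulated with 100 pg/ml TNF-α for 24 h at 37 °C. Secreted alkaline phosphatase read with QUANTI-Blue at 620 nm; IC50 by 4-parameter logistic fit after background correction to stimulated/unstimulated DMSO controls.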
TNF-α, sequence (P01375 77-233 limits assumed): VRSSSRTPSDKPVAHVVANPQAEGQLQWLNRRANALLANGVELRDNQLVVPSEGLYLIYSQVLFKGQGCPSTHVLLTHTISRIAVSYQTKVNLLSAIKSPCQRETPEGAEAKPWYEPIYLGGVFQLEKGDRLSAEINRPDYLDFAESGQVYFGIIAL

Structures are written as SMILES. A value given as a limit tells only on which side of the number the result lay.

For the compound `Cc1nc2cc(F)c(-c3ccc(P(C)(C)=O)nc3)nc2c(N[C@@H](c2cc(C#N)ccc2F)C(F)F)c1Cl` [Example 34, (S)-3-(1-((3-chloro-6-(6-(dimethylphosphoryl)pyridin-3-yl)-7-fluoro-2-methyl-1,5-naphthyridin-4-yl)amino)-2,2-difluoroethyl)-4-fluorobenzonitrile], the half-inhibitory concentration (IC50) was not above 100 nM. As for `Cc1nc2cc(F)c(-c3ccc(P4(=O)CCCC4)nc3)nc2c(N[C@H](C)c2cc(C#N)ccc2F)c1Cl` [Example 27, 3-[(1R)-1-({3-chloro-7-fluoro-2-methyl-6-[6-(1-oxo-1lambda5-phospholan-1-yl)pyridin-3-yl]-1,5-naphthyridin-4-yl}amino)ethyl]-4-fluorobenzonitrile], the figure is not above 100 nM; as for `Cc1nc2cc(F)c(-c3ccc(P(C)(C)=O)nc3)c(F)c2c(NC(C)c2ncccc2F)c1Cl` (stereo not drawn) [Example 97, 3-chloro-6-[6-(dimethylphosphoryl)pyridin-3-yl]-5,7-difluoro-N-[1-(3-fluoropyridin-2-yl)ethyl]-2-methylquinolin-4-amine], not above 1000 nM; as for `Cc1nc2cc(F)c(-c3ccc(P(C)(C)=O)nc3)nc2c(N[C@H](C)c2c(F)cccc2F)c1Cl` [Example 52, 3-chloro-N-[(1R)-1-(2,6-difluorophenyl)ethyl]-6-[6-(dimethylphosphoryl)pyridin-3-yl]-7-fluoro-2-methyl-1,5-naphthyridin-4-amine], not above 1000 nM. As for `Cc1nc2cc(F)c(-c3ccc(P(C)(C)=O)nc3)nc2c(N[C@@H](c2cc(F)cc(F)c2)C2CC2)c1Cl` [Example 138, 3-chloro-N—[(R)-cyclopropyl(3,5-difluorophenyl)methyl]-6-[6-(dimethylphosphoryl)pyridin-3-yl]-7-fluoro-2-methyl-1,5-naphthyridin-4-amine], the figure is not above 1000 nM.

`Cc1nc2ccc(-c3cnc(P(C)(C)=O)nc3)nc2c(N[C@H](C)c2cc(C#N)ccc2F)c1Cl` [Example 41, 3-[(1R)-1-({3-chloro-6-[2-(dimethylphosphoryl)pyrimidin-5-yl]-2-methyl-1,5-naphthyridin-4-yl}amino)ethyl]-4-fluorobenzonitrile]: the 50% inhibitory concentration (IC50) was not above 1000 nM. Under `COc1cc([C@@H](C)Nc2c(Cl)c(C)nc3cc(F)c(-c4ccc(P(C)(C)=O)nc4)nc23)ccn1` [Example 81, 3-chloro-6-[6-(dimethylphosphoryl)pyridin-3-yl]-7-fluoro-N-[(1R)-1-(2-methoxypyridin-4-yl)ethyl]-2-methyl-1,5-naphthyridin-4-amine] stands 10000 to 30000 nM. `Cc1nc2ccc(-c3cnc(P(C)(C)=O)nc3)cc2c(N[C@H](C)c2cc(C#N)ccc2F)c1Cl` [Example 6, 3-[(1R)-1-({3-chloro-6-[2-(dimethylphosphoryl)pyrimidin-5-yl]-2-methylquinolin-4-yl}amino)ethyl]-4-fluorobenzonitrile] had a half-maximal inhibitory concentration (IC50) not above 1000 nM. As for `Cc1nc2cc(F)c(-c3ccc(P(C)(C)=O)nc3)nc2c(N[C@H](C)c2cc(C#N)cc(F)c2F)c1Cl` [Example 106, 3-[(1R)-1-({3-chloro-6-[6-(dimethylphosphoryl)pyridin-3-yl]-7-fluoro-2-methyl-1,5-naphthyridin-4-yl}amino)ethyl]-4,5-difluorobenzonitrile], the figure is not above 100 nM; as for `Cc1nc2cc(F)c(-c3ccc(P(C)(C)=O)nc3)nc2c(N[C@H](c2ccccc2)C2CC2)c1Cl` [Example 140, 3-chloro-N—[(S)-cyclopropyl(phenyl)methyl]-6-[6-(dimethylphosphoryl)pyridin-3-yl]-7-fluoro-2-methyl-1,5-naphthyridin-4-amine], not above 1000 nM. `Cc1nc2cc(F)c(-c3ccc(P(C)(C)=O)nc3)cc2c(N[C@@H](C)c2cncnc2)c1Cl` (single isomer, unassigned) [Example 101] had an IC50 of 10000 to 30000 nM. As for `Cc1nc2cc(F)c(-c3ccc(P(C)(C)=O)nc3)c(F)c2c(N[C@H](C)c2ccccc2F)c1Cl` [Example 72, 3-chloro-6-[6-(dimethylphosphoryl)pyridin-3-yl]-5,7-difluoro-N-[(1R)-1-(2-fluorophenyl)ethyl]-2-methylquinolin-4-amine], the figure is not above 1000 nM.
